Read-outs that look alike come from different tables or passages of the source.
What was measured:
[1] = system: fibromyalgia patients; test: Placebo-controlled trials in fibromyalgia patients (safety); format: in vivo, human; conditions: human, in vivo
From the text: The stated frequencies of adverse reactions represent the proportion of individuals who experienced, at least once, a treatment-emergent adverse reaction of the type listed. A reaction was considered treatment emergent if it occurred for the first time or worsened while receiving therapy following baseline evaluation.

[2] = system: patients; test: Spontaneous / postmarketing reports; format: in vivo, human; conditions: in vivo
From the text: However, because these adverse reactions were reported voluntarily from a population of uncertain size, it is not always possible to reliably estimate their frequency or establish a causal relationship to drug exposure.

[3] = clinical; conditions: in vivo
Protocol: The pharmacokinetic parameters described herein include area under the plasma concentration-time curve (AUC0-t and AUC0-∞), maximum plasma concentration (Cmax), time of maximum plasma concentration (Tmax) and terminal elimination half-life (T1/2). The time of maximum concentration, Tmax, is determined as the time corresponding to Cmax. Area under the plasma concentration-time curve up to the time corresponding to the last measurable concentration (AUC0-t) is calculated by numerical integration using the linear trapezoidal rule as follows: […]

[4] = Urinary excretion after oral 14C-milnacipran hydrochloride; format: in vivo, human
From the text: Milnacipran and its metabolites are eliminated primarily by renal excretion. […] The l-milnacipran carbamoyl-O-glucuronide was the major metabolite excreted in urine and accounted for approximately 17% of the dose; approximately 2% of the dose was excreted in urine as d-milnacipran carbamoyl-O-glucuronide.

[5] = parameters: species or system human; conditions: in vivo, po
From the text: AUC0-∞ and T½ were similar in healthy subjects and subjects with mild and moderate hepatic impairment. […] Caution should be exercised in patients with severe hepatic impairment.

[6] = human, in vivo
From the text: Dosage adjustment based on gender is not necessary.

[7] = Drug interaction studies in healthy adult subjects; format: in vivo, human; conditions: human, in vivo
Protocol: The drug interaction studies described below were conducted in healthy adult subjects.

[8] = target: neuronal serotonin reuptake (Homo sapiens, UniProt P31645); test: Serotonin uptake inhibition in vitro; format: biochemical; conditions: preclinical studies
[9] = target: T1, uptake of dopamine (Homo sapiens, UniProt Q01959); test: Dopamine uptake; format: biochemical; conditions: preclinical studies
[10] = system: serotonergic (5-HT1-7) receptors; test: Receptor affinity in vitro; format: binding
[11] = system: α-adrenergic receptors; test: Receptor affinity in vitro; format: binding
[12] = system: β-adrenergic receptors; test: Receptor affinity in vitro; format: binding
[13] = system: muscarinic (M1-5) receptors; test: Receptor affinity in vitro; format: binding
[14] = system: histamine (H1-4) receptors; test: Receptor affinity in vitro; format: binding
[15] = system: dopamine (D1-5) receptors; test: Receptor affinity in vitro; format: binding
[16] = system: opiate receptors; test: Receptor affinity in vitro; format: binding
[17] = system: benzodiazepine receptors; test: Receptor affinity in vitro; format: binding
[18] = system: γ-aminobutyric acid (GABA) receptors; test: Receptor affinity in vitro; format: binding
[19] = system: Ca^++ channels; test: Ion channel affinity; format: binding
[20] = system: K^+ channels; test: Ion channel affinity; format: binding
[21] = system: Na^+ channels; test: Ion channel affinity; format: binding
[22] = system: Cl^− channels; test: Ion channel affinity; format: binding
[23] = target: human monoamine oxidase MAO-A (Homo sapiens, UniProt P21397); test: Enzyme inhibition; format: biochemical
[24] = target: human monoamine oxidase MAO-B (Homo sapiens, UniProt P27338); test: Enzyme inhibition; format: biochemical
[25] = target: acetylcholinesterase (Homo sapiens, UniProt P22303); test: Enzyme inhibition; format: biochemical
[26] = system: rats; test: Reproductive toxicity in rats (dead fetuses in utero); format: in vivo, rat; conditions: 5 mg/kg/day (0.25 times the MRHD on a mg/m^2 basis)
[27] = system: mice; test: Embryotoxicity/teratogenicity in mice, period of organogenesis; format: in vivo, mouse; conditions: up to 125 mg/kg/day (3 times the MRHD)
[28] = system: rabbits; test: Embryotoxicity/teratogenicity in rabbits, period of organogenesis; format: in vivo, rabbit; conditions: up to 60 mg/kg/day (6 times the MRHD)
[29] = system: rats; test: Oral administration to rats during late gestation; format: in vivo
Protocol: The no-effect dose for maternal and offspring toxicity was 2.5 mg/kg/day (approximately 0.1 times the MRHD on a mg/m^2 basis).

[30] = system: rats; conditions: rat, in vivo, 50 mg/kg/day
[31] = system: bacterial reverse mutation; test: In vitro bacterial reverse mutation assay (Ames test); format: cell-based
[32] = system: L5178Y TK+/− mouse lymphoma; format: cell-based
[33] = system: human lymphocytes; format: cell-based
[34] = system: mouse; conditions: in vivo
[35] = system: primate; conditions: in vivo
From the text: (§1) The clinical significance of the finding is not known.

[36] = system: rats; conditions: rat, in vivo, 15 mg/kg
From the text: as §1

[37] = system: rat; conditions: in vivo
[38] = in vivo
From the text: Milnacipran is not a controlled substance.
These withdrawal symptoms can be severe. Thus, in certain embodiments, milnacipran hydrochloride should be tapered and not abruptly discontinued after extended use.

[39] = target: T1, uptake of dopamine; conditions: cited from earlier work
[40] = oral 14C-milnacipran hydrochloride

T1 sequence (Q01959 whole entry): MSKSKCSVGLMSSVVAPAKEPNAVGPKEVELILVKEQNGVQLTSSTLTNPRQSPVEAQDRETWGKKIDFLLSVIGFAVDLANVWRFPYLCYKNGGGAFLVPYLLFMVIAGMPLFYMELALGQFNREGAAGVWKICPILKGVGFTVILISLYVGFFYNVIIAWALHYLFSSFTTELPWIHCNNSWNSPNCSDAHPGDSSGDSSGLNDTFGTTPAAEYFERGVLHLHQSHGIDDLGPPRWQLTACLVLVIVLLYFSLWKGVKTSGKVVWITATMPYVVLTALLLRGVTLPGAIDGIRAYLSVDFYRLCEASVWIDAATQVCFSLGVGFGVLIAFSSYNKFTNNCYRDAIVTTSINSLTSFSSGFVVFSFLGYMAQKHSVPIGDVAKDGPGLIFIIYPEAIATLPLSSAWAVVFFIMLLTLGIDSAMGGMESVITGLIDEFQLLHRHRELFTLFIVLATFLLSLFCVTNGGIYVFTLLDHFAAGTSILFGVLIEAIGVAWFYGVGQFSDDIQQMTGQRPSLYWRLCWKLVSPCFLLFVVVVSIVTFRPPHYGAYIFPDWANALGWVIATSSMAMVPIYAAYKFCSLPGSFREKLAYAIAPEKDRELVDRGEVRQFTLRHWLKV
Chain of neuronal serotonin reuptake (P31645 whole entry): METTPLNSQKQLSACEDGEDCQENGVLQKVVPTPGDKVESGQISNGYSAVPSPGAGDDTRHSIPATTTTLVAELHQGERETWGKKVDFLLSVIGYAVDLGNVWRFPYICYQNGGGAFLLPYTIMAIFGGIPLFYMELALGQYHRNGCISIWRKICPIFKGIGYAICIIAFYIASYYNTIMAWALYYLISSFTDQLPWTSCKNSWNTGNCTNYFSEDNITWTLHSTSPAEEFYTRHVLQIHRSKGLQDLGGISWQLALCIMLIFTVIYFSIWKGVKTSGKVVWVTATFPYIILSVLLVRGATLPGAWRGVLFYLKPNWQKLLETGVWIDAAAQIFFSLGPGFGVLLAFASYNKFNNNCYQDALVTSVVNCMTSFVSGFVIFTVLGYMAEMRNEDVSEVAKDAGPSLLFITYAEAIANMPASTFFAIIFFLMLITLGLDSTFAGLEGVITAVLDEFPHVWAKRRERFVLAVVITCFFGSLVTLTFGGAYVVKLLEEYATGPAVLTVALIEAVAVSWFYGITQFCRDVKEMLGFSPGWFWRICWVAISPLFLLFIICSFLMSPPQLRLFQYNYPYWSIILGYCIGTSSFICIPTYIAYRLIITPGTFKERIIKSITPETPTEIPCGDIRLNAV
Chain of human monoamine oxidase MAO-A (P21397 whole entry): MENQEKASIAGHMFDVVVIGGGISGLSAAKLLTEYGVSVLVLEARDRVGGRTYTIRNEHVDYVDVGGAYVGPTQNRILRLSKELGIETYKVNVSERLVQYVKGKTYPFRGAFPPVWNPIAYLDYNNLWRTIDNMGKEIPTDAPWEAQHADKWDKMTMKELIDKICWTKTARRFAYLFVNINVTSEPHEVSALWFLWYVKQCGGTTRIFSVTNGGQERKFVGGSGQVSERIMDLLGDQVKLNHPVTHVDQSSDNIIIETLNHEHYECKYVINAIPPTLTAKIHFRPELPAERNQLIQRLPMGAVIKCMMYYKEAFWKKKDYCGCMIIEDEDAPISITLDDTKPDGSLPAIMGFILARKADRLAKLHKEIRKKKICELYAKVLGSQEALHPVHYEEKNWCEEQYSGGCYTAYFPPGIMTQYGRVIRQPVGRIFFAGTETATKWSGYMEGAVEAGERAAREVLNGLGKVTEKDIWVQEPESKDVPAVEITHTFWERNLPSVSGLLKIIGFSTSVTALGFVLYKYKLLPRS
Chain of human monoamine oxidase MAO-B (P27338 whole entry): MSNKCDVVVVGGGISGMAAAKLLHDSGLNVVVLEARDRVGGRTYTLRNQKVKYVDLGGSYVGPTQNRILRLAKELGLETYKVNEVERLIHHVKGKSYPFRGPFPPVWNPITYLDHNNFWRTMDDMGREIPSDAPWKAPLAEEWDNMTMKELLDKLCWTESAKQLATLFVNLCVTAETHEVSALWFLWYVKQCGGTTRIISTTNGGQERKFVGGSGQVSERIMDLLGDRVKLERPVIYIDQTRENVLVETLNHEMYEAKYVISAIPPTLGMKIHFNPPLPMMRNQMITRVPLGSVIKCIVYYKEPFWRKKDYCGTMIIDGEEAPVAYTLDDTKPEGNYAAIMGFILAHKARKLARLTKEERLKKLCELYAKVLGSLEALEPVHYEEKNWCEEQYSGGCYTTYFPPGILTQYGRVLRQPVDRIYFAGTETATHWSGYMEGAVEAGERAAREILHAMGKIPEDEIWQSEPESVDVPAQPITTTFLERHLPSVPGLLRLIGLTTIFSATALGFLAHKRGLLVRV
Chain of acetylcholinesterase (P22303 32-614, species assumed): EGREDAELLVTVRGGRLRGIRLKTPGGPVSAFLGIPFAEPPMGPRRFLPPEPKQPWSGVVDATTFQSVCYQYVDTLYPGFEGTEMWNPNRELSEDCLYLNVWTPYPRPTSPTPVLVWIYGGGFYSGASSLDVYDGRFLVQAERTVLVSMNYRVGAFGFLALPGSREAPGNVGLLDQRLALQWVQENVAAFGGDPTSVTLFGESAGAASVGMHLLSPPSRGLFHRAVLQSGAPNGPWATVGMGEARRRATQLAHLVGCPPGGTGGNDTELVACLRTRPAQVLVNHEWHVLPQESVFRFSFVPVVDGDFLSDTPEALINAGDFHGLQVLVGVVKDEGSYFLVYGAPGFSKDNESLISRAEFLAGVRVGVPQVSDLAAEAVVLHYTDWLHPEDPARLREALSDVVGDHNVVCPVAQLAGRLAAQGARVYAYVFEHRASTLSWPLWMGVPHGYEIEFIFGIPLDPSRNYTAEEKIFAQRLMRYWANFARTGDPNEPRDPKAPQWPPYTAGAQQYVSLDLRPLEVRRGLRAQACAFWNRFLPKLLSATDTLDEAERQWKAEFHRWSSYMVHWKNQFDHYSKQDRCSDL

CCN(CC)C(=O)C1(c2ccccc2)CC1CN (stereo not shown) [milnacipran]
withdrawal due to constipation [1]: 1%
withdrawal due to dizziness [1]: 1%
withdrawal due to headache [1]: 2%
withdrawal due to heart rate increased [1]: 1%
withdrawal due to hyperhidrosis [1]: 1%
withdrawal due to nausea [1]: 6%
withdrawal due to palpitations [1]: 3%
withdrawal due to vomiting [1]: 1%
withdrawal symptoms following discontinuation [1]: Withdrawal symptoms have been observed
liver findings [2]: cases of increased liver enzymes and reports of severe liver injury, including fulminant hepatitis
dose excreted unchanged in urine ([3]; human): 55%
half-life ([3]; human): 6 to 8 h
time to steady-state levels ([3]; human): 36 to 48 h
Vd ([3]; human, iv): ~400 L
bioavailability ([3]; human, po): 85 to 90%
exposure vs dose [3]: increased proportionally
dose excreted in urine as this species ([4]; human, in vivo, po): approximately 55%
higher AUC0-∞ than healthy subjects ([5]; human, 50 mg): 31%
higher T½ than healthy subjects ([5]; human, 50 mg): 55%
T½ vs healthy subjects [5]: similar
higher AUC ([6]; both): about 20%
higher Cmax ([6]; both): about 20%
higher AUC [6]: about 30%
higher Cmax [6]: about 30%
adverse events after switching from clomipramine [7]: an increase in adverse events (e.g., euphoria and postural hypotension)
inhibition of neuronal serotonin reuptake [8]: potent inhibitor
effect on uptake of dopamine or other neurotransmitters [9]: without directly affecting
affinity [10]: no significant affinity
affinity [11]: no significant affinity
affinity [12]: no significant affinity
affinity [13]: no significant affinity
affinity [14]: no significant affinity
affinity [15]: no significant affinity
affinity [16]: no significant affinity
affinity [17]: no significant affinity
affinity [18]: no significant affinity
affinity [19]: no significant affinity
affinity [20]: no significant affinity
affinity [21]: no significant affinity
affinity [22]: no significant affinity
inhibition of activity [23]: does not inhibit
inhibition of activity [24]: does not inhibit
inhibition of activity [25]: does not inhibit
incidence of dead fetuses in utero [26]: increased the incidence of dead fetuses in utero
embryotoxicity or teratogenicity [27]: did not result in embryotoxicity or teratogenicity
embryotoxicity or teratogenicity [28]: did not result in embryotoxicity or teratogenicity
pup body weight and viability on postpartum day 4 ([29]; rat, in vivo, po, 5 mg/kg/day): decrease in pup body weight and viability
no-effect dose for maternal and offspring toxicity ([29]; rats (approximately 0.1 times the MRHD)): 2.5 mg/kg/day
tumor incidence [30]: statistically significant increase in the incidence of thyroid C-cell adenomas and combined adenomas and carcinomas in males
mutagenicity [31]: not mutagenic
mutagenicity [32]: not mutagenic
clastogenicity [33]: not clastogenic
clastogenicity [34]: not clastogenic
keratitis of the eye [35]: did not show this response
hepatic findings [36]: increased incidences of centrilobular vacuolation of the liver in male rats and eosinophilic foci in male and female rats
keratitis of the eye [36]: increased incidence of keratitis of the eye
keratitis of the eye [37]: did not show this response
behavioral signs indicative of abuse potential [38]: did not produce behavioral signs indicative of abuse potential
physical dependence [38]: produces physical dependence
effect on uptake of dopamine [39]: does not affect

CCN(CC)C(=O)[C@]1(c2ccccc2)C[C@@H]1CN.Cl [(1R,2S) enantiomer, (1R,2S)-2-aminomethyl-1-phenyl-N,N-diethylcyclopropanecarboxamide hydrochloride]
half-life ([3]; human): 4 to 6 h

CCN(CC)C(=O)[C@@]1(c2ccccc2)C[C@H]1CN.Cl [(1S,2R) enantiomer, (1S,2R)-2-aminomethyl-1-phenyl-N,N-diethylcyclopropanecarboxamide hydrochloride]
half-life ([3]; human): 8 to 10 h

CCN(CC)C(=O)[C@]1(c2ccccc2)C[C@@H]1CNC(=O)O[C@@H]1O[C@H](C(=O)O)[C@@H](O)[C@H](O)[C@H]1O [d-milnacipran carbamoyl-O-glucuronide]
dose excreted in urine as this species [4, 40]: approximately 2%

CCNC(=O)[C@]1(c2ccccc2)C[C@@H]1CN [N-desethyl milnacipran]
dose excreted in urine as this species [4, 40]: Approximately 8%

CCN(CC)C(=O)[C@@]1(c2ccccc2)C[C@H]1CNC(=O)O[C@@H]1O[C@H](C(=O)O)[C@@H](O)[C@H](O)[C@H]1O [l-milnacipran carbamoyl-O-glucuronide]
dose excreted in urine as this species [4, 40]: approximately 17%

CCN(CC)C(=O)[C@@]1(c2ccccc2)C[C@H]1CN [l-milnacipran]
dose excreted in urine as this species [4, 40]: 24%

CCN(CC)C(=O)[C@]1(c2ccccc2)C[C@@H]1CN [d-milnacipran]
dose excreted in urine as this species [4, 40]: 31%
